Reference: ChEMBL document CHEMBL1136607, “Novel thrombin inhibitors incorporating non-basic partially saturated heterobicyclic P1-arginine mimetics” (Bioorg Med Chem Lett, 2003)

Columns and labels:
Homo sapiens [1] = species on record: Homo sapiens; assay: Concentration required to double the […] prothrombin time in human plasma (PT); type: functional, cell-free
Serine protease 1 = Serine protease 1 (Homo sapiens, UniProt P07477); assay: In vitro inhibitory activity against Trypsin
Coagulation factor X = Coagulation factor X (Homo sapiens, UniProt P00742); assay: In vitro inhibitory activity against Factor Xa
Homo sapiens [2] = species on record: Homo sapiens; assay: Concentration required to double the activated partial thromboplastin time in human plasma (APTT); type: functional, cell-free
[3] = biological target: Thrombin & trypsin (Homo sapiens) (UniProt P00734+P07477+P07478+P35030); assay: Selectivity ratio of thrombin to trypsin; type: protein assay
Homo sapiens [4] = species on record: Homo sapiens; assay: Concentration required to double the thrombin time in human plasma (TT); type: functional, cell-free
Prothrombin = Prothrombin (Homo sapiens, UniProt P00734); assay: In vitro inhibitory activity against Thrombin

Chain of Serine protease 1 (P07477 whole entry): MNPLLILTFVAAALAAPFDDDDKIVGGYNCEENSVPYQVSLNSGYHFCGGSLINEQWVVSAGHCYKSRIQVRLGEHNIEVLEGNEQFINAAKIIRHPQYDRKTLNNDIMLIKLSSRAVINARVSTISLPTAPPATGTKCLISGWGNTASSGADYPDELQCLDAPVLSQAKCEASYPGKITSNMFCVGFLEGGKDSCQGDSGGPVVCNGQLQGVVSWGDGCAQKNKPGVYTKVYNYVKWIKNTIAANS
Chain of Coagulation factor X (P00742 41-179 limits assumed): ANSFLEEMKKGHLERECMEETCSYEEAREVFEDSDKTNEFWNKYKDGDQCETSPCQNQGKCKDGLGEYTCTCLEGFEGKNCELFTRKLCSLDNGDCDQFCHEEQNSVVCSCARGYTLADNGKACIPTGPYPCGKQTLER
Chain of Coagulation factor X (P00742 235-488 limits assumed): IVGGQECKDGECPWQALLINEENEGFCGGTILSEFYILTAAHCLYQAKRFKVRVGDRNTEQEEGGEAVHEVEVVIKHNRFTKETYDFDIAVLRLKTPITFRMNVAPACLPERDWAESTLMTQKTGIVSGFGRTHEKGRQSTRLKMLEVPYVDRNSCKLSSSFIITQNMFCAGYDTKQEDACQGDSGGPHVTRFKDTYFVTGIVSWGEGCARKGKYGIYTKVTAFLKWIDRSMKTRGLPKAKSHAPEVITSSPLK

Row | Compound | Concentration (Homo sapiens [1]) | Ki (Serine protease 1) | Ki (Coagulation factor X) | Concentration (Homo sapiens [2]) | Ratio [3] | Concentration (Homo sapiens [4]) | Ki (Prothrombin)
1 | O=C(O)CN[C@H](CC1CCCCC1)C(=O)N1CCC[C@H]1C(=O)NCC1CCc2n[nH]cc2C1 (stereo partly drawn) | 55.3 µM | 19.9 µM | 84.8 µM | 28 µM | 71 | 4.9 µM | 
2 | Nc1ncc2c(n1)CCC(NC(=O)[C@@H]1CCCN1C(=O)[C@@H](CC1CCCCC1)NS(=O)(=O)Cc1ccccc1)C2 (stereo partly drawn) |  | > 68.3 µM | > 75.4 µM |  |  |  | > 35.1 µM
3 | N[C@@H](C(=O)N1CCC[C@H]1C(=O)NCC1CCc2n[nH]cc2C1)C(c1ccccc1)c1ccccc1 (stereo partly drawn) |  | 217 µM | 82.1 µM |  |  |  | 
4 | O=C(NCC1CCc2n[nH]cc2C1)[C@@H]1CCCN1C(=O)[C@@H](CC1CCCCC1)NS(=O)(=O)Cc1ccccc1 (stereo partly drawn) | 78.3 µM | > 68.3 µM | > 75.4 µM | 42.3 µM | > 478 | 11 µM | 
5 | O=C(NCC1CCc2ncncc2C1)[C@@H]1CCCN1C(=O)[C@@H](CC1CCCCC1)NS(=O)(=O)Cc1ccccc1 (stereo partly drawn) |  | 342 µM | 111 µM |  |  |  | 
6 | Nc1ncc2c(n1)CCC(CNC(=O)[C@@H]1CCCN1C(=O)[C@H](N)C(c1ccccc1)c1ccccc1)C2 (stereo partly drawn) |  | 409 µM | 57.6 µM |  | 32 |  | 12.9 µM
7 | O=C(NC1CCc2n[nH]cc2C1)[C@@H]1CCCN1C(=O)[C@@H](CC1CCCCC1)NS(=O)(=O)Cc1ccccc1 (stereo partly drawn) |  | > 68.3 µM | > 75.4 µM |  | > 13 |  | 5.38 µM
8 | CC(C)(C)OC(=O)N[C@H](Cc1ccc(Cl)c(Cl)c1)C(=O)N1CCC[C@H]1C(=O)NCC1CCc2n[nH]cc2C1 (stereo partly drawn) |  | > 68.3 µM | > 75.4 µM |  | > 21 |  | 3.33 µM
9 | Nc1ncc2c(n1)CCC(CNC(=O)[C@@H]1CCCN1C(=O)[C@@H](CC1CCCCC1)NS(=O)(=O)Cc1ccccc1)C2 (stereo partly drawn) |  | > 68.3 µM | > 75.4 µM |  |  |  | > 35.1 µM
10 | Cn1cc2c(n1)CCC(NC(=O)[C@@H]1CCCN1C(=O)[C@@H](CC1CCCCC1)NS(=O)(=O)Cc1ccccc1)C2 (stereo partly drawn) |  | 730 µM |  |  |  |  | 
11 | N[C@H](Cc1ccc(Cl)c(Cl)c1)C(=O)N1CCC[C@H]1C(=O)NCC1CCc2n[nH]cc2C1 (stereo partly drawn) |  | > 68.3 µM | > 75.4 µM |  | > 99 |  | 0.69 µM
12 | O=C(NC1CCc2c[nH]cc2C1)[C@@H]1CCCN1C(=O)[C@@H](CC1CCCCC1)NS(=O)(=O)Cc1ccccc1 (stereo partly drawn) |  | 416 µM |  |  | 15 |  | 27.3 µM
13 | CC(C)(C)OC(=O)N[C@H](Cc1ccc(Cl)c(Cl)c1)C(=O)N1CCC[C@H]1C(=O)NCC1CCc2nc(N)ncc2C1 (stereo partly drawn) |  | > 68.3 µM | > 75.4 µM |  |  |  | > 35.1 µM
14 | CC(C)(C)OC(=O)N[C@@H](C(=O)N1CCC[C@H]1C(=O)NCC1CCc2n[nH]cc2C1)C(c1ccccc1)c1ccccc1 (stereo partly drawn) | 105 µM |  | 85.2 µM | 81 µM |  | 29.2 µM | 0.53 µM
15 | Nc1ncc2c(n1)CCC(CNC(=O)[C@@H]1CCCN1C(=O)[C@H](N)Cc1ccc(Cl)c(Cl)c1)C2 (stereo partly drawn) |  | > 68.3 µM | > 75.4 µM |  |  |  | > 35.1 µM
